PMC6572184, “New γ-Halo-δ-lactones and δ-Hydroxy-γ-lactones with Strong Cytotoxic Activity” (Molecules, 2019)

Assays:
Type in all cases: cell-based
[1] = system: Escherichia coli ATCC 8739; assay: Bactericidal activity, CFU counting method; details: E. coli ATCC 8739; for Number of CFU/mL (× 10^7): 18 h at 37 °C, Control 9.47, Control with DMSO 9.30
Procedure: (§1) The bacterial cultures: Escherichia coli ATCC 8739 and Staphylococcus aureus ATCC 65389 were grown on Luria–Bertani Agar for 18 h at 37 ^∘ C. The strain suspension was prepared in 0.85% saline, with an optical density equivalent to a 0.5 McFarland standard. Next, the following mixtures were prepared: 180 μ L of sterile enriched broth (BTL), 10 μ L of the bacterial suspension and 10 μ L of the tested compound (range 0.1–50 μ g/mL) solubilized in DMSO. As a negative control, only DMSO was added. As a sterility control, 180 μ L of BTL and 20 μ L saline were used. The microtiter plate was incubated at 37 ^∘ C for 18 h. The colony forming unit (CFU) method was used to evaluate the microbial population. The experiment was repeated three times. Gentamicin was used as the reference antibiotic.

[2] = system: Staphylococcus aureus ATCC 65389; assay: Bactericidal activity, CFU counting method; details: S. aureus ATCC 65389; for Number of CFU/mL (× 10^7): 18 h at 37 °C, Control 21.36, Control with DMSO 20.85
Procedure: as §1

[3] = system: AGS cell lines (human gastric adenocarcinoma); assay: MTT reduction cytotoxicity assay; details: for mean percentage of viable cells ± SD: 24 h
Procedure: (§2) Cell cultures: The L929 mouse fibroblasts and human gastric adenocarcinoma cell line AGS were used for in vitro cytotoxicity assays. The cells were maintained under standard conditions (37 ^∘ C, 5% CO 2 ) in 25 cm^2 tissue culture flasks in RPMI-1640 medium supplemented with 10% fetal bovine serum (FBS) and antibiotics: 100 U/mL penicillin and 100 μ g/mL streptomycin. The cell suspension containing 10 ^8 cells in 1 mL, was obtained by treatment of confluent monolayers with 0.25% trypsin solution, washed and subcultured. Cell cultures were supplemented with medium to maintain them in log phase growth. The viability of the cells was assessed by exclusion of trypan blue dye.
(§3) Measurements of cellular metabolic activity and global growth inhibition: L929 cells were seeded into 96-well plates (2 × 10 ^5 cells/well) for 24 h, at 37 ^∘ C, 5% CO2 . Tested compounds 5a–c, 6a–c, 7a–c, 8a–c, 9b,c, 10b,c, 12a and 13a were diluted serially in RPMI-1640 medium in concentrations of 50, 20, 10, 5, 0.5 and 0.1 μ g/mL, added to the cells (100 μ L/well), and incubated under standard conditions for 24 h. The potential harmful effect of lactones on L929 and AGS cells was assessed by the ability of the cells to reduce 3-(4,5-dimethylthiazol-2-yl)-2,5-diphenyltetrazolium bromide (MTT) to formazan. The solution of MTT (5 mg/mL in PBS), was added to each well and the plates were incubated for 4h at 37 ^∘ C. Formazan crystals were dissolved with acidic isopropanol (0.1 M HCl in absolute isopropanol) and the plates were read in a plate reader (Victor 2) at 570 nm. The percentage of MTT reduction was calculated by comparing the absorbance of treated cells to that of untreated control cells. Results are expressed as the mean percentage of viable cells ± standard deviation (SD) of four independent experiments. Statistical significance was accepted at a p-value < 0.05.

[4] = system: L929 cell lines (mouse fibroblasts); assay: MTT reduction cytotoxicity assay; details: 24 h
Procedure: as §2, §3

Row | SMILES | Number of CFU/mL (× 10^7) [1] | Number of CFU/mL (× 10^7) [2] | IC50 [3] [nM] | mean percentage of viable cells ± SD ([3]; 0.1 μg/mL) [%] | mean percentage of viable cells ± SD ([3]; 0.5 μg/mL) [%] | mean percentage of viable cells ± SD ([3]; 5 μg/mL) [%] | mean percentage of viable cells ± SD ([3]; 10 μg/mL) [%] | mean percentage of viable cells ± SD ([3]; 20 μg/mL) [%] | mean percentage of viable cells ± SD ([3]; 50 μg/mL) [%] | mean percentage of viable cells ± SD ([4]; 0.1 μg/mL) [%] | mean percentage of viable cells ± SD ([4]; 0.5 μg/mL) [%] | mean percentage of viable cells ± SD ([4]; 5 μg/mL) [%] | mean percentage of viable cells ± SD ([4]; 10 μg/mL) [%] | mean percentage of viable cells ± SD ([4]; 20 μg/mL) [%] | mean percentage of viable cells ± SD ([4]; 50 μg/mL) [%] | less CFU/mL (reduction of the number of CFU/mL) ([1]; versus control) | less CFU/mL (reduction of the number of CFU/mL) ([2]; versus control) [%]
1 | CC1CC(=O)OC(c2ccc(F)cc2)C1Cl (stereo not drawn) [5c, Trans,trans-5-chloro-6-(4-fluorophenyl)-tetrahydro-4-methylpyran-2-one] | 9.46 × 10^7 CFU/mL | 14.83 × 10^7 CFU/mL | 600 | 54 ± 0.12 | 47 ± 0.12 | 44 ± 0.10 | 34 ± 0.09 | 21 ± 0.08 | 10 ± 0.12 | 26 ± 0.03 | 21 ± 0.15 | 14 ± 0.09 | 10 ± 0.03 | 4 ± 0.06 | 2 ± 0.12 |  | 
2 | CC1CC(=O)OC(c2ccc(F)cc2)C1Cl (mixture of isomers) [6c, Cis,trans-5-chloro-6-(4-fluorophenyl)-tetrahydro-4-methylpyran-2-one] | 2.06 × 10^7 CFU/mL | 7.39 × 10^7 CFU/mL | 2900 | 49 ± 0.10 | 37 ± 0.05 | 28 ± 0.06 | 16 ± 0.10 | 14 ± 0.07 | 6 ± 0.08 | 24 ± 0.03 | 22 ± 0.05 | 18 ± 0.12 | 9 ± 0.05 | 4 ± 0.08 | 2 ± 0.02 | 70–78% | 83
3 | CC1CC(=O)OC(c2ccccc2)C1Br (mixture of isomers) [8b, Cis,trans-5-bromo-tetrahydro-4-methyl-6-phenylpyran-2-one] | 5.83 × 10^7 CFU/mL | 9.04 × 10^7 CFU/mL | 1900 | 44 ± 0.15 | 35 ± 0.10 | 31 ± 0.02 | 28 ± 0.09 | 17 ± 0.10 | 11 ± 0.05 | 24 ± 0.03 | 17 ± 0.08 | 15 ± 0.03 | 8 ± 0.05 | 4 ± 0.08 | 1 ± 0.02 |  | 
4 | CC1CC(=O)OC(c2ccc(F)cc2)C1Br (stereo not drawn) [7c, Trans,trans-5-bromo-6-(4-fluorophenyl)-tetrahydro-4-methylpyran-2-one] | 6.52 × 10^7 CFU/mL | 6.42 × 10^7 CFU/mL | 3500 | 63 ± 0.03 | 49 ± 0.06 | 42 ± 0.02 | 25 ± 0.12 | 18 ± 0.10 | 8 ± 0.07 | 27 ± 0.08 | 21 ± 0.08 | 17 ± 0.02 | 11 ± 0.08 | 5 ± 0.05 | 1 ± 0.03 |  | 
